Laboratory results from PubChem BioAssay (NCI).
“And” between values parts separate entries of the source, which are not always exact repeats. Equal entries are not always repeated.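 How tested: cells in 96-well plates exposed to compound for 48 hours at five concentrations. GI50 is the concentration that inhibits growth by half. TGI: concentration producing complete growth inhibition.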

What was measured:
Assay in all cases: growth of human tumour cells (NCI), 48 h
CCRF-CEM leukemia = test system: CCRF-CEM leukemia
HCT-15 colon = test system: HCT-15 colon
HL-60(TB) leukemia = test system: HL-60(TB) leukemia
KM12 colon = test system: KM12 colon
MCF7 breast = test system: MCF7 breast
OVCAR-3 ovarian = test system: OVCAR-3 ovarian
SK-MEL-28 melanoma = test system: SK-MEL-28 melanoma
SK-OV-3 ovarian = test system: SK-OV-3 ovarian
SNB-19 CNS = test system: SNB-19 CNS
UACC-257 melanoma = test system: UACC-257 melanoma

Compound | GI50 (CCRF-CEM leukemia) | TGI (CCRF-CEM leukemia) | GI50 (HCT-15 colon) [µM] | TGI (HCT-15 colon) [µM] | GI50 (HL-60(TB) leukemia) [µM] | TGI (HL-60(TB) leukemia) | GI50 (KM12 colon) [µM] | TGI (KM12 colon) | GI50 (MCF7 breast) [µM] | TGI (MCF7 breast) | GI50 (OVCAR-3 ovarian) [µM] | TGI (OVCAR-3 ovarian) | GI50 (SK-MEL-28 melanoma) [µM] | TGI (SK-MEL-28 melanoma) | GI50 (SK-OV-3 ovarian) [µM] | TGI (SK-OV-3 ovarian) | GI50 (SNB-19 CNS) | TGI (SNB-19 CNS) [µM] | GI50 (UACC-257 melanoma) [µM] | TGI (UACC-257 melanoma)
Cc1ccc2ccc3c4ccccc4ccc3c2c1 | 22 µM | 52.4 µM | 23.3 | 83.5 | 23.8 | 60.5 µM | 21.6 | 68.5 µM | 15.5 | 39.3 µM | 25.5 | 67.6 µM | 39.4 | > 100 µM | 39.5 | > 100 µM | 26.7 µM | > 100 | 27.1 | 83.4 µM
Nc1ncnc2c1c(-c1ccc(Oc3ccccc3)cc1)nn2CC1SSCC1O (stereo unspecified) | 0.138 µM | 32.5 µM | 3.03 | 9.88 | 1.49 | 7.99 µM | 0.324 | 7.67 µM | 1.44 | 7.85 µM | 0.659 | 1.62 µM | 0.131 | 0.92 µM | 1.35 | 7.05 µM | 5.51 µM | 13 | 2.07 | 10.6 µM
C[C@]12CCc3nc(Nc4ccc(O)cc4)sc3C1=CC[C@@H]1[C@@H]2CC[C@]2(C)/C(=N/NC(N)=S)CC[C@@H]12 | 0.629 µM | > 100 µM | 1.24 | 3.03 | 1.88 | 5.07 µM | 1.26 | 2.74 µM | 1.15 | 3.01 µM | 1.56 | 3.12 µM | 1.51 | 3.4 µM | 1.62 | 3.25 µM | 1.38 µM | 2.94 | 2.04 | 5.61 µM
OCc1ccc(-c2ccc(-c3ccc(CO)o3)o2)o1 | > 100 µM | > 100 µM | > 100 | > 100 | > 100 | > 100 µM | > 100 | > 100 µM | 16.7 | > 100 µM | > 84.6 | > 100 µM | > 100 | > 100 µM | > 83.3 | > 100 µM | > 90.8 µM | > 100 | 2.85 | 11.9 µM
N=C(N)n1cc(/C=N/N=C(N)N)cn1 | – | > 100 µM | – | > 100 | – | > 100 µM | – | > 100 µM | – | > 100 µM | – | > 100 µM | – | > 100 µM | – | > 100 µM | – | > 100 | – | > 100 µM
O=C1Nc2ccc(-c3cccnc3)cc2/C1=C/c1cc(Br)c(O)c(Br)c1 | 5.43 µM | > 25 µM | 6.8 | > 25 | 6.97 | > 22.1 µM | 6.59 | 24.8 µM | 11.4 | > 25 µM | 5.05 | 12.8 µM | 4.89 | 14.6 µM | 8.11 | 24.9 µM | 9.11 µM | > 25 | 4.07 | 9.36 µM
COC(=O)c1ccc(NC(N)=NCCC(C)(C)c2ccc(C(F)(F)F)cc2)nc1 | 3.01 µM | 11 µM | 1.99 | 5.12 | 1.74 | 3.71 µM | 2.65 | 9.12 µM | 1.7 | 3.87 µM | 1.78 | 4.08 µM | 1.64 | 3.23 µM | 6.63 | 19.2 µM | 3.3 µM | 11.5 | 2.03 | 4.34 µM
CCc1ccc(Oc2c(-c3ccc(OCc4ccc(Cl)cc4)cc3O)nn(C)c2C(F)(F)F)cc1 | 0.454 µM | 4.82 µM | 0.365 | 1.45 | 1.42 | 3.62 µM | 0.389 | 1.61 µM | 0.339 | 1.9 µM | 0.334 | 1.13 µM | 1.26 | 2.91 µM | 1.63 | 4.98 µM | 0.591 µM | 2.14 | 1.18 | 3.53 µM
COc1cc([C@@H]2c3cc4c(cc3[C@H](SC(=N)N)[C@H]3COC(=O)[C@H]23)OCO4)cc(OC)c1OC | 0.299 µM | > 100 µM | 0.321 | > 100 | 0.25 | > 100 µM | 0.0944 | 0.409 µM | 0.0586 | > 100 µM | 0.0767 | 0.35 µM | 14.4 | > 100 µM | 0.201 | > 33 µM | 0.449 µM | > 100 | 15.1 | > 100 µM
CO[C@H]1C(=O)[C@]2(C)[C@@H](OC)C[C@H]3OC[C@@]3(OC(C)=O)[C@H]2[C@H](OC(=O)c2ccccc2)[C@]2(O)C[C@H](OC(=O)[C@H](O)[C@@H](NC(=O)OC(C)(C)C)c3ccccc3)C(C)=C1C2(C)C | < 0.01 µM | 42.3 µM | < 0.01 | 56 | < 0.01 | < 0.01 µM | < 0.01 | 22.4 µM | < 0.01 | 20.5 µM | < 0.01 | < 0.01 µM | – | 39.8 µM | < 0.01 | 35.2 µM | < 0.0134 µM | > 100 | – | > 63 µM
CC[n+]1c(-c2ccccc2)c2cc(N)ccc2c2ccc(N)cc21 | 2.15 µM and 1.2 µM and 4.94 µM | 77 µM and 33 µM and 48.3 µM | 39.6 | > 100 | – | 18 µM and 26.9 µM and 47.6 µM | 1.02 | 4.68 µM and 15 µM and 21.9 µM | 1.07 | 12.9 µM and 15.3 µM | 1.61 | 9.84 µM and 20.4 µM and 15 µM | 0.607 | 2.12 µM and 8.02 µM | 2.19 | 23.5 µM and 25.6 µM | 0.368 µM and 0.502 µM and 1.43 µM | – | 1.22 | 4.8 µM and 10 µM and 6.4 µM
O=C(CCCCN1CCN(CCCCC(=O)Nc2ccccc2C#C/C=C\C#Cc2ccccc2C(F)(F)F)CC1)Nc1ccccc1C#C/C=C\C#Cc1ccccc1C(F)(F)F | 6.02 µM | 17 µM | 10.5 | 23.8 | 11.9 | 24.6 µM | 13.2 | 33 µM | 9.97 | 23 µM | 10.6 | 21.8 µM | 9.76 | 18.4 µM | 18.7 | > 50 µM | 11.7 µM | 32.1 | 10.8 | 22.5 µM
